This is an account of results in US7202260B2, “VEGFR-2 and VEGFR-3 inhibitory anthranilamide pyridones” (Schering AG, priority 2003, dated 2007).

For test [1], the target named is VEGFR II (KDR) (Homo sapiens, UniProt P35968). As to the kind of experiment: Inhibition of the KDR kinase activity (33P-ATP, poly-(Glu4Tyr) filter assay). The format is biochemical. The method, then: • Stock Solutions • Stock solution A: 3 mmol of ATP in water, pH 7.0 (−70° C.) • Stock solution B: g-33P-ATP 1 mCi/100 μl • Stock solution C: poly-(Glu4Tyr) 10 mg/ml in water • Solution for Dilutions • Substrate solvent: 10 mmol of DTT, 10 mmol of manganese chloride, 100 mmol of magnesium chloride • Enzyme solution: 120 mmol of tris/HCl, pH 7.5, 10 μM of sodium vanadium oxide Sample Application 1 Inhibition of the KDR- and FLT-1 Kinase Activity in the Presence of the Compounds According to the Invention
Chain of VEGFR II (KDR) (P35968 20-1356, species assumed): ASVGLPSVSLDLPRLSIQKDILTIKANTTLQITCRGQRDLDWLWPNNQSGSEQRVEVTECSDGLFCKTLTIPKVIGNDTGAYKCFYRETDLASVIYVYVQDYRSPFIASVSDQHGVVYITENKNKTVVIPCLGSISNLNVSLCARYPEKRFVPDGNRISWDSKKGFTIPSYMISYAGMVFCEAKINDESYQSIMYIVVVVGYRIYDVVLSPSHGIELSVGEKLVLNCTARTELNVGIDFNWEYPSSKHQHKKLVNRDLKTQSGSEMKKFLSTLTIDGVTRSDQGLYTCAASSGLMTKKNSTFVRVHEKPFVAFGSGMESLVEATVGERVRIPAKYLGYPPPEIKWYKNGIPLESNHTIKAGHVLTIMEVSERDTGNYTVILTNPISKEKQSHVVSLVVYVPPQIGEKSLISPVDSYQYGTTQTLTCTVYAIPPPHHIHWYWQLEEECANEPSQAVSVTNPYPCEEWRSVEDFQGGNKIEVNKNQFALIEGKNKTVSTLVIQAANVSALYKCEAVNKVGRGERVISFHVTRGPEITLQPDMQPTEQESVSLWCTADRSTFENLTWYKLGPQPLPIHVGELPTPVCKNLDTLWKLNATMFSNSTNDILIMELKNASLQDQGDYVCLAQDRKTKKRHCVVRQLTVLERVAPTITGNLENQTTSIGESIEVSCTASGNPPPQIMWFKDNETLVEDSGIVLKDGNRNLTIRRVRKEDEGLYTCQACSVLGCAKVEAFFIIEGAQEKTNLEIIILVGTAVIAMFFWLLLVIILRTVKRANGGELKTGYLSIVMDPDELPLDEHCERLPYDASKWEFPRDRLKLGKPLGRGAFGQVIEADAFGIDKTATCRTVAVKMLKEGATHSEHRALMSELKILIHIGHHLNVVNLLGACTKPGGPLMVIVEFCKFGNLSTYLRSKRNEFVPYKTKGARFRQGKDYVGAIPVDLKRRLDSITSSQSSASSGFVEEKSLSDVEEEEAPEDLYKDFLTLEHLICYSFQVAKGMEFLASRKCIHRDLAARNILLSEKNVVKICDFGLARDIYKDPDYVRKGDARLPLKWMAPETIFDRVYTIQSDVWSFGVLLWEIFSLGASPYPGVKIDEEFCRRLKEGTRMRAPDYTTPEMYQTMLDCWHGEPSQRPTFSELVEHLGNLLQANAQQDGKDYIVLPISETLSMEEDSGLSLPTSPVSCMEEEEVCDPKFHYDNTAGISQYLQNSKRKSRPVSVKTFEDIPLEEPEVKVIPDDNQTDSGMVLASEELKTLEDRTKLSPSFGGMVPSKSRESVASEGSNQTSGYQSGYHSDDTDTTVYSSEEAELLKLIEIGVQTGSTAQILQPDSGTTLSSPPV
In a microtiter plate (without protein binding) that tapers to a point, 10 μl of substrate mix (10 μl of volume of ATP stock solution A+25 μCi of g-33P-ATP (about 2.5 μl of stock solution B)+30 μl of poly-(Glu4Tyr) stock solution C+1.21 ml of substrate solvent), 10 μl of inhibitor solution (substances corresponding to the dilutions, 3% DMSO in substrate solvent as a control) and 10 μl of enzyme solution (11.25 μg of enzyme stock solution (KDR, FLT-1 or FLT-4 kinase) are added at 4° C. in 1.25 ml of enzyme solution (dilute). It is thoroughly mixed and incubated for 10 minutes at room temperature. Then, 10 μl of stop solution (250 mmol of EDTA, pH 7.0) is added, mixed, and 10 μl of the solution is transferred to a P 81 phosphocellulose filter. […] The filter paper is dried, coated with Meltilex, and measured in a microbeta counter. […]

Test [2] deals with T1, Cytochrome P450 isoenzyme 3A4 (Homo sapiens, UniProt P08684).
T1 construct: host or cells: baculovirus/insect cells
T1 sequence (P08684 whole entry): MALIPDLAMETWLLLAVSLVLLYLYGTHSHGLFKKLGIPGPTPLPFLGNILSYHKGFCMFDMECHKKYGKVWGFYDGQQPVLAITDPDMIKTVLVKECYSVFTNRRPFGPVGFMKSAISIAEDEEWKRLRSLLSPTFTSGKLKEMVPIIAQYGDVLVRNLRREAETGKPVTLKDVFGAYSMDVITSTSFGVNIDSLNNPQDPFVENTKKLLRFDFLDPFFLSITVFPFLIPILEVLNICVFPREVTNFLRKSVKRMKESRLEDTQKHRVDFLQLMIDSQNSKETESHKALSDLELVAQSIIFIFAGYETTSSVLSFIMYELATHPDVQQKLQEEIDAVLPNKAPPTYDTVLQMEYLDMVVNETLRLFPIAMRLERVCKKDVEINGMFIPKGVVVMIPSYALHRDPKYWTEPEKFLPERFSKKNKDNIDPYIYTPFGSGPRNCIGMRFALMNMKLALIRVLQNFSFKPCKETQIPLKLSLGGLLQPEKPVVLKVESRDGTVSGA
In words: Cytochrome P450 inhibition (Crespi et al.). The format is in vitro ADME. The note with it: baculovirus/insect cell-expressed human isoenzyme 3A4. Here is the method: Cytochrome P450 Inhibition
The Cytochrome P450 inhibition was performed according to the publication of Crespi et al. (Anal. Biochem., 248, 188–190 (1997)) with use of the baculovirus/insect cell-expressed and human Cytochrome P450 isoenzyme (3A4).

The structures appear in SMILES notation. Read-outs that look alike come from different tables or passages of the source.

Usually IC50 stands for the point on the concentration scale where inhibition reaches its midpoint. For the compound `O=C(Nc1ccc(OC(F)(F)F)cc1)c1ccccc1NCc1ccc(=O)[nH]c1` [Example 1.0, 2-[(6-Oxo-1,6-dihydro-pyridin-3-ylmethyl)-amino]-N-(4-trifluoromethoxy-phenyl)-benzamide], the IC50 was 56 nM in test [1] and 5600 nM in test [2] (read-out: Inhibition of Cyp 450 3A4 (IC50)).
As for `O=C(Nc1ccc(OCC(F)(F)F)cc1)c1ccccc1NCc1ccc(=O)[nH]c1` [Example 1.5], the figures for the IC50 in test [1] and in test [2] (heading: Inhibition of Cyp 450 3A4) were 59 nM and 11000 nM, respectively.
